Data taken from US6906094B2, “1,2,4-tribsubstituted benzenes as inhibitors of 15-lipoxygenase” (Warner-Lambert Company, priority 2000, dated 2005).

Experiments:
human 15-LO = target: T1, human 15-LO (Homo sapiens, UniProt P16050); assay: Human Lysate 15-LO Assay (HUM15LO); format: biochemical; conditions: recombinant human 15-LO, 174 μM linoleic acid, 15 minutes at 4° C., 13-HODE quantitated
T1 construct: made in house; host or cells: Sf9 insect cells (baculovirus, Bac-to-Bac)
T1 sequence (P16050 1-662): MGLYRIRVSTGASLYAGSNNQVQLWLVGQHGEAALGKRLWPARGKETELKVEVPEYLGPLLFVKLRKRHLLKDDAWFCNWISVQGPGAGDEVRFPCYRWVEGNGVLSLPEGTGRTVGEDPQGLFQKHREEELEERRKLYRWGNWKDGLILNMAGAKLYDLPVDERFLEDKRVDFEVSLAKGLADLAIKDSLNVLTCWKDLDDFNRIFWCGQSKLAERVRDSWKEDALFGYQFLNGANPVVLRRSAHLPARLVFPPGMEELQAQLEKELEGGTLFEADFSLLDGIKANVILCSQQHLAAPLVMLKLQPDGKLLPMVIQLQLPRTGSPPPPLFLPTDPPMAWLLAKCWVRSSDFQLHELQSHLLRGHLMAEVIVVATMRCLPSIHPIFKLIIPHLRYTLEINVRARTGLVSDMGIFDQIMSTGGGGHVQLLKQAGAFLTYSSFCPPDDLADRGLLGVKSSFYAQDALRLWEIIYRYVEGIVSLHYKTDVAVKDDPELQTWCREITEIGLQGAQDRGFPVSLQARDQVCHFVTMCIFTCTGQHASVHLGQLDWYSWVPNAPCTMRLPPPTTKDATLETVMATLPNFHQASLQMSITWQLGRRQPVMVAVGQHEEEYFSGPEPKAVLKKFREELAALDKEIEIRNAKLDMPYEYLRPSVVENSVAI
Experimental: In the HUM15LO assay, a test compound of the present invention was incubated with 15-LO enzyme in the presence of the linoleic acid substrate. For example, a known amount of a test compound of the present invention, 100 μL of human 15-LO, and 174 μM linoleic acid in PBS containing 0.2% sodium cholate were incubated for 15 minutes at 4° C. The reaction was stopped with 100 μL of mobile phase and 10 μL of triethyl phosphite. […] 13-HODE was quantitated by comparing peak areas of individual samples with those from a standard curve generated using authentic 13-HODE. The test reaction is compared to a control reaction, which is identical to the test reaction except no test compound of the present invention is present Percent inhibition is calculated as the amount of 13-HODE produced by the test reaction divided by the amount of 13-HODE produced by the control reaction, expressed as a percent.
Human 15-LO was generated in a recombinant 15-lipoxygenase bacculovirus expression system, using Gibco/BRL/Life Technologies' Bac-to-Bac expression reagents; T4 DNA ligase, Kanamycin, Gentamicin, tetracycline, penicillin, streptomycin, Bluo-gal, IPTG, DH10Bac competent cells, SOC, LB medium, Sf-900 II SFM media, Sf9 insect cells, Cell Fectin, and EcoRI, BamHI and KpnI restriction enzymes.

[1] = target: T2, rabbit reticulocyte 15-LO (Oryctolagus cuniculus, UniProt P12530); assay: Rabbit Reticulocyte 15-LO Assay (H15LO); format: biochemical; conditions: 2 U rabbit reticulocyte 15-LO, 174 μM linoleic acid, 15 minutes at 4° C., 13-HODE quantitated
T2 construct: 15-LO is obtained from phenylhydrazine-treated rabbits and purified according to the method of Rapoport; from tissue; host or cells: reticulocytes of phenylhydrazine-treated rabbits
T2 sequence (P12530 1-663): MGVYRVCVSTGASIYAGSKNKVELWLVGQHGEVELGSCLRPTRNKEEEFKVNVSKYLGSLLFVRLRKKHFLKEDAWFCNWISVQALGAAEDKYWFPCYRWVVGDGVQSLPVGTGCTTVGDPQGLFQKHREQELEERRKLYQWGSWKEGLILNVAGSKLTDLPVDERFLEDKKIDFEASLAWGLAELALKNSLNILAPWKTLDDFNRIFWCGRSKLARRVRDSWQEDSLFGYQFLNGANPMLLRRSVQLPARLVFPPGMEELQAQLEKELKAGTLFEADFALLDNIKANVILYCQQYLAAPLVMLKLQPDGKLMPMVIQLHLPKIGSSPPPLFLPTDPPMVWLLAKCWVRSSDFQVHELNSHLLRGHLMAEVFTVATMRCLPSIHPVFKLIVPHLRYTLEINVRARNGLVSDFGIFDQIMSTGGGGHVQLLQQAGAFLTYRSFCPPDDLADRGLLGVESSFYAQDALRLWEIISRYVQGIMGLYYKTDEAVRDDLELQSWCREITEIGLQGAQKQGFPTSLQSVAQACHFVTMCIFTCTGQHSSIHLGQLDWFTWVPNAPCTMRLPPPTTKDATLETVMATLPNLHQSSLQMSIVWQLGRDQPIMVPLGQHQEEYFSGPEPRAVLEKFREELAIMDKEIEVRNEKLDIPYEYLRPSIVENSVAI
Experimental: In the H15LO assay, a test compound was incubated with 15-LO enzyme in the presence of the linoleic acid substrate. For example, 2 units (U) of rabbit reticulocyte 15-LO and 174 μM linoleic acid were incubated with a known amount of a test compound of the present invention for 15 minutes at 4° C. The total reaction volume was 100 μL in phosphate buffer saline (PBS) containing 0.2% sodium cholate. The reaction was stopped with 100 μL of mobile phase and […] of triethyl phosphite. […] 13-HODE was quantitated by comparing peak areas of individual samples with those from a standard curve generated using authentic 13-HODE.
15-LO is obtained from phenylhydrazine-treated rabbits and purified according to the method of Rapoport (Rapoport et al., European Journal of Biochemistry, 1979;96:545-561).

Row | Compound | IC50 (human 15-LO) [nM] | IC50 [1] [nM]
1 | COc1ccc(-c2cc3cc(F)c(F)cc3[nH]2)cc1NS(=O)(=O)NC(=O)OCC(=O)OCc1ccccc1 [Example 16, Acetic Acid, [[[[[[5-(5,6-difluoro-IH-indol-2-yl)-2-methoxyphenyl]amino]-sulfonyl]amino]carbonyl]oxy]-, phenylmethyl ester] | 10 | 2
2 | COc1ccc(C(=O)Nc2ccc(F)c(F)c2)cc1NS(=O)(=O)NC(=O)Nc1cc(Cl)cc(Cl)c1 [Example 17, Benzamide, 3-[[[[[(3,5-dichlorophenyl)amino]-carbonyl]amino]sulfonyl]-amino]-N-(3,4-difluorophenyl)-4-methoxy] | 37 | 10
3 | CCS(=O)(=O)CCOC(=O)NS(=O)(=O)Nc1cc(C(=O)Nc2ccc(F)c(F)c2)ccc1OC [Example 8, Carbamic Acid, [[[5-[[(3,4-difluorophenyl)amino]carbonyl]-2-methoxyphenyl]amino]sulfonyl]-, 2-(ethylsulfonyl)ethyl ester] | 312 | –
4 | COc1ccc(C(=O)Nc2ccc(F)c(F)c2)cc1NS(=O)(=O)NC(=O)OCCCBr [Example 9, Carbamic Acid, [[[5-[[(3,4-difluorophenyl)amino]carbonyl]-2-methoxyphenyl]amino]sulfonyl]-, 3-bromopropyl ester] | 154 | –
5 | COc1ccc(-c2cc3cc(F)c(F)cc3[nH]2)cc1NS(=O)(=O)NC(=O)Nc1cc(Cl)cc(Cl)c1 [Example 24] | 33 | 11
6 | COC(=O)NS(=O)(=O)Nc1cc(-c2cc3cc(F)c(F)cc3[nH]2)ccc1OC [Example 29, Carbamic Acid, [[[5-(5,6-difluoro-IH-indol-2-yl)-2-methoxyphenyl]amino]-sulfonyl]-methyl ester] | 85 | 47
7 | COc1ccc(-c2cc3cc(F)c(F)cc3[nH]2)cc1NS(=O)(=O)NC(=O)OCCOC(C)C [Example 34, Carbamic Acid, [[[5-(5,6-difluoro-IH-indol-2-yl)-2-methoxyphenyl]amino]-sulfonyl]-2(1-methylethoxy)ethyl Ester] | 30 | 26
8 | COc1ccc(C(=O)Nc2ccc(F)c(F)c2)cc1NS(=O)(=O)NC(=O)OCCN(C)C [Example 5, Carbamic Acid, [[[5-[[(3,4-difluorophenyl)amino]carbonyl]-2-methoxyphenyl]amino]sulfonyl]-, 2-(dimethylamino)ethyl ester] | 240 | –
9 | CCOC(=O)NS(=O)(=O)Nc1cc(-c2cc3ccccc3[nH]2)ccc1OC [Example 26, Carbamic Acid, [[[5-(IH-indol-2-yl)-2-methoxyphenyl]amino]sulfonyl]-, Ethyl Ester] | 630 | –
10 | COc1ccc(C(=O)Nc2ccc(F)c(F)c2)cc1NS(=O)(=O)NC(=O)Nc1ccc(N)cc1 [Example 63, Benzamide, 3-[[[[[(4-aminophenyl)amino]carbonyl]amino]sulfonyl]amino]-N-(3,4-difluorophenyl)-4-methoxy-, mono(trifluoroacetate)] | 214 | –
11 | COc1ccc(C(=O)Nc2ccc(F)c(F)c2)cc1NS(=O)(=O)NC(=O)Nc1ccccc1 [Example 18, Benzamide, N-(3,4-difluorophenyl)-4-methoxy-3-[[[[(phenylamino)carbonyl]-amino]sulfonyl]amino]] | 142 | –
12 | COc1ccc(C(=O)Nc2ccc(F)c(F)c2)cc1NS(=O)(=O)NC(=O)OCCN1CCCC1 [Example 4, Carbamic Acid, [[[5-[[(3,4-difluorophenyl)amino]carbonyl]-2-methoxyphenyl]amino]-suffonyl]-, 2-(1-pyrrolidinyl)ethyl ester] | 144 | –
13 | Carbamic Acid, [[[5-[[(3,4-difluorophenyl)amino]carbonyl]-2-methoxyphenyl]amino]sulfonyl]methyl-, Ethyl ester [Example 69] | 154 | –
14 | CCOC(=O)NS(=O)(=O)Nc1cc(C(=O)Nc2ccc(F)c(F)c2)ccc1OC [Example 19, Carbamic Acid, [[[5-[[(3,4-difluorophenyl)amino]carbonyl]-2-methoxyphenyl]amino]sulfonyl]-, Ethyl Ester] | 339 | –
15 | COc1ccc(C(=O)Nc2ccc(F)c(F)c2)cc1NS(=O)(=O)NC(=O)Nc1cccc([N+](=O)[O-])c1 [Example 60, Benzamide, N-(3,4-difluorophenyl)-4-methoxy-3-[[[[[(3-nitrophenyl) -amino]carbonyl]amino]sulfonyl]amino]] | 25 | –
16 | COc1ccc(-c2cc3cc(F)c(F)cc3[nH]2)cc1NS(=O)(=O)NC(=O)OC(C)(C)C [Example 53, Carbamic Acid, [[[5-(5,6-difluoro-indol-2-yl)-2-methoxyphenyl]amino]-sulfonyl]-, 1,1-dimethylethyl ester] | – | 23
17 | COc1ccc(C(=O)Nc2ccc(F)c(F)c2)cc1NS(=O)(=O)NC(=O)OCCN1CCOCC1 [Example 2, Carbamic Acid, [[[5[[(3,4-difluorophenyl)amino]carbonyl]-2-methoxyphenyl]-amino]sulfonyl]-, 2-(4morpholinyl)ethyl ester] | 384 | –
18 | COc1ccc(C(=O)Nc2ccc(F)c(F)c2)cc1NS(=O)(=O)NC(=O)Nc1ccccc1 [Example 67, Benzamide, N-(3,4-difluorophenyl)-4-methoxy-3-[[[[(phenylamino)carbonyl]-amino]sulfonyl]amino]] | 182 | –
19 | COc1ccc(C(=O)Nc2ccc(F)c(F)c2)cc1NS(=O)(=O)NC(=O)OCCc1cccs1 [Example 7, Carbamic Acid, [[[5-[[(3,4-difluorophenyl)amino]carbonyl]-2-methoxyphenyl]amino]sulfonyl]-, 2-(2-thienyl)ethyl ester] | 79 | –
20 | COc1ccc(NS(=O)(=O)NC(=O)Nc2cc(C(=O)Nc3ccc(F)c(F)c3)ccc2OC)cc1 [Example 20, Benzamide, N-(3,4-difluorophenyl)-4-methoxy-3-[[[[[(4-methoxyphenyl)-amino]sulfonyl]amino]carbonyl]amino]] | 1050 | –
21 | COc1ccc(C(=O)Nc2ccc(F)c(F)c2)cc1NS(=O)(=O)NC(=O)OCCCN(C)C [Example 3, Carbamic Acid, [[(5-[[(3,4-diflu rophenyl)amino]carbonyl]-2-methoxyphenyl]amino]sulfonyl]-, 3-(dimethylamino)propyl Ester] | 408 | –
22 | COc1ccc(C(=O)Nc2ccc(F)c(F)c2)cc1NS(=O)(=O)NC(=O)Nc1cc(C(F)(F)F)cc(C(F)(F)F)c1 [Example 62, Benzamide, 3-[[[[[[3,5-bis(trifluoromethyl)phenyl]amino]-carbonyl]amino]-sulfonyl]amino]-N-(3,4-difluorophenyl)-4-methoxy] | 173 | –
